Data set [1] in a line: Animal tests of pure d-α-tocotrienol: blood cholesterol and side effects. Type of data set: in vivo. The following applies: test animals. An excerpt: We have isolated pure d-α-tocotrienol from barley. […] In addition to being extractable from natural sources, including barley and lemon grass oil, d-α-tocotrienol can be synthesized using available technology similar to that which has been used in the synthesis of Vitamin E and more recently as described by S. Urano et al. (J. Chem. Pharm. Bull. 31, 4341 (1983)).

For a further data set, the target named is T1, FAS (Gallus gallus, UniProt P12276).
T1 construct: activity in isolated hepatocytes; endogenous in cells; host or cells: isolated hepatocytes
T1 sequence (P12276 2-2512 limits assumed): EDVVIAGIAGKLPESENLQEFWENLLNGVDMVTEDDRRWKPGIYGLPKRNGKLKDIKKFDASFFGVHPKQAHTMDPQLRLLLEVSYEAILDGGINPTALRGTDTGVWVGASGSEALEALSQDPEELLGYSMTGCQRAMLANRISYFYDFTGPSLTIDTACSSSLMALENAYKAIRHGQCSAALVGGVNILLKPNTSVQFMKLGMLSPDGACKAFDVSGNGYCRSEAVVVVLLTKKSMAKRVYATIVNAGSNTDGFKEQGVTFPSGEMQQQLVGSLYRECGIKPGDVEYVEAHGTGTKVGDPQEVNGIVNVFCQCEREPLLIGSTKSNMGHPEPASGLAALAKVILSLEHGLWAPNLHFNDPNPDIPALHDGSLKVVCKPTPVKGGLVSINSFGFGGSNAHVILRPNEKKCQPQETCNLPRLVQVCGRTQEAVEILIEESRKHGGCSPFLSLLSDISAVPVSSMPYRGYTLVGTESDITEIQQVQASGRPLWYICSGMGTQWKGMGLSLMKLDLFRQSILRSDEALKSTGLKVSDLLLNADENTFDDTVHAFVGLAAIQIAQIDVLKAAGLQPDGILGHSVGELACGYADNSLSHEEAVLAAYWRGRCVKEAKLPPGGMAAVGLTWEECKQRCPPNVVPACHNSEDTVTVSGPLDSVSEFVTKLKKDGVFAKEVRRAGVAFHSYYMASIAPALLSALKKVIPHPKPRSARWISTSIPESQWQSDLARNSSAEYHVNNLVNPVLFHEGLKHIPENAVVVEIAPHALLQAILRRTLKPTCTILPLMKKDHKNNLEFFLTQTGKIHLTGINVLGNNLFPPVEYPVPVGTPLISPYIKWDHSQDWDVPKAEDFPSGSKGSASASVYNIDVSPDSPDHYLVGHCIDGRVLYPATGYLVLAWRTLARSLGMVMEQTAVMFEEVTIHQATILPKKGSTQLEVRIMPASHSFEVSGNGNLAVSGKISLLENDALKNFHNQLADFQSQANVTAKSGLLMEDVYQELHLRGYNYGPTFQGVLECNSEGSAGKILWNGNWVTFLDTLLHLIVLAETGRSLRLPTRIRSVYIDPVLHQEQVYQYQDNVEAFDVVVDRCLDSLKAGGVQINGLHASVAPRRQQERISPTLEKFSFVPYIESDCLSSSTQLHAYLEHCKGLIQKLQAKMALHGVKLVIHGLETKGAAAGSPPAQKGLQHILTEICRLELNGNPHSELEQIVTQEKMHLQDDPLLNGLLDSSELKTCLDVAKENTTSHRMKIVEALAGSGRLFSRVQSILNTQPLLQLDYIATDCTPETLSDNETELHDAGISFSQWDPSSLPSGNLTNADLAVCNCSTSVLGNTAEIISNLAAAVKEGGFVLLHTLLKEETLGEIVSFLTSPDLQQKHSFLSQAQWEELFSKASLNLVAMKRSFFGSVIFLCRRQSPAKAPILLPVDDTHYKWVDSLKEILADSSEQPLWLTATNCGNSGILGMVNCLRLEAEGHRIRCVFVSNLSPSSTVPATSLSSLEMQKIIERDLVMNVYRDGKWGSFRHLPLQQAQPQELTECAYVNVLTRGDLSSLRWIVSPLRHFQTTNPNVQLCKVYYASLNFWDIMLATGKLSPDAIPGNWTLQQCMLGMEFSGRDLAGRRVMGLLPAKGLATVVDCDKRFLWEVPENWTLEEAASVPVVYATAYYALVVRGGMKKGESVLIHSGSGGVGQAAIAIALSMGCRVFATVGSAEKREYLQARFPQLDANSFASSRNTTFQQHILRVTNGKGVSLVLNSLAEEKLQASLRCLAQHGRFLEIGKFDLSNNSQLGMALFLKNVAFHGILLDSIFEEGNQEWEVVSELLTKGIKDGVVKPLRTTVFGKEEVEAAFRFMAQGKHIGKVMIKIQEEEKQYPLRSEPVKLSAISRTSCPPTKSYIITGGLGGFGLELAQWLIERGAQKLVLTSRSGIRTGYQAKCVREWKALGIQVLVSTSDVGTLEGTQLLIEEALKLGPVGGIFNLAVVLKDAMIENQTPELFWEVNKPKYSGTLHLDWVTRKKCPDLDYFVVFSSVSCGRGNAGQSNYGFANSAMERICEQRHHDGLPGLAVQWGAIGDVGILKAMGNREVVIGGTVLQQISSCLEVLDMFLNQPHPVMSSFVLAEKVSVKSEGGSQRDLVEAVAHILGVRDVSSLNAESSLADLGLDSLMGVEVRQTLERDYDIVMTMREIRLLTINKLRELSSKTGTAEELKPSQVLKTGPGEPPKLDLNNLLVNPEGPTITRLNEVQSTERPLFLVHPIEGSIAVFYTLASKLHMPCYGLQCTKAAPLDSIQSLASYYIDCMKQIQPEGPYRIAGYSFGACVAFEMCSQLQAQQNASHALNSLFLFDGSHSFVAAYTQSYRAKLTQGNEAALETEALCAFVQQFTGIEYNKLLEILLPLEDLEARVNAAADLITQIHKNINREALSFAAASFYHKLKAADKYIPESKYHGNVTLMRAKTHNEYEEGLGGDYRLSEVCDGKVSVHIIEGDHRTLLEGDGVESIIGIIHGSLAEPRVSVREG
The data set can be described thus: HPLC fractions checked in vitro for effect on FAS in isolated hepatocytes. The conditions noted are these: HPLC fractions of petroleum ether solubles. In kind it is cell-based.

Data set [2] relates to Fatty Acid Synthetase. The experiment in a line: Hepatic fatty acid synthetase activity in 3-week-old broiler male chickens fed supplemented corn diet. Type of data set: in vivo, chicken. The following applies: liver; for Fatty Acid Synthetase: mean ± SD, N = 9. The source says: (§1) These responses were attributed to the presence in the small grains of relatively high concentrations of beta-D-glucans and pentosans. A long-standing interest in lipid metabolism prompted us to examine certain lipogenic and cholesterolgenic enzymes in the tissues of these birds. Methods used for handling blood samples, preparing subcellular fractions of liver and assay procedures for beta-hydroxy-beta-methylglutaryl coenzyme A (HMG Co-A) reductase, fatty acid synthetase (FAS), plasma cholesterol and triglycerides and the statistical treatment of the data have been described [Qureshi AA et al. (1980): Regulation of lipid metabolism in chicken livers by dietary cereals, J Nutr 110:388-393].
For large scale preparation of these compounds, 10 grams of the petroleum ether soluble fraction of HPBF were dissolved in 10 ml petroleum ether and applied to a 90×3.5 cm silicic acid column (Bio-Silica, 100-200 mesh). The column was washed with 2,500 ml petroleum ether followed by stepwise elution with increasing amounts of ether in petroleum ether. Fraction 8 of the column corresponded to HPLC fraction 5. A concentration-dependent suppression of HMG Co-A reductase activity and enhancement of FAS activity was noted within this range. Serum total and LDL cholesterol levels also fell in a dose-dependent response. […] In a companion experiment, using the same control birds, the effect of cholesterol inhibitor I at 5 ppm is compared to the effect of the petroleum ether solubles of HPBF at 20% equivalent on weight gain, HMG Co-A reductase and FAS activities, serum cholesterol and serum triglyceride levels (Table 2). […] Serum triglyceride levels reflected the influence of the diet on FAS activity. […] Cholesterol inhibitor I was a more powerful suppressor of LDL cholesterol (Table 2).
^1 Feeding period was 3 weeks; Time of killing was 0800; Data
expressed as mean ± SD; N = 9 chickens per group; HMGCoA reductase =
^3 nmoles of NADPH oxidized per minute per mg of cytosolic protein.

The nature of data set [3]: Serum lipids in 13-week-old WLH male chickens. In kind it is in vivo, chicken. The following applies: 20 ppm in corn diet, fed four weeks.
Source text: as §1
Cholesterol inhibitor I was re-chromatographed by HPLC and the UV absorption spectrum obtained. Maximum absorption occurred at 292 nm. This purified fraction was used for high resolution mass spectrometric analysis. Several scans were made using ionization temperatures from 90-180 degrees Centigrade to increase the possibility of detecting impurities. The high resolution mass spectrometric analysis and measurements of different peaks gave a molecular ion peak at m/e 424 and main peaks at m/e 385, 205 and 165 corresponding to C29 H44 O2 (molecular formula) C25 H36 O2, C13 H17 O2 and C10 H13 O2 moieties, respectively, which are characteristic fragmentation moieties for d-alpha-tocotrienol. Lemon grass oil is a rich source of d-alpha-tocotrienol. This product and cholesterol inhibitor I at 20 ppm were compared with the petroleum ether soluble fraction of HPBF (20% equivalent HPBF) in a group of older male White Leghorn chickens (Table 3). The results shown on Table 3 confirm those previously recorded for petroleum ether solubles of HPBF and cholestrol inhibitor I. In a final experiment, the effects of cholestrol inhibitor I and lemon grass oil on hepatocyte HMG Co-A reductase and FAS activities were tested. Both components tested in the concentration range 5-100 microgram/ml, produced a concentration-dependent suppression of HMG Co-A reductase and concentration-dependent enhancement of FAS activity (Table 4).
^1 Feeding period was four weeks; Time of killing was 0800; Data
expressed as mean ± SD; N = 8 chickens per group; HMGCoA reductase =

Data set [4] relates to Fatty Acid Synthetase. The data set can be described thus: Hepatic fatty acid synthetase activity in 13-week-old WLH male chickens. Type of data set: in vivo, chicken. The following applies: 20 ppm in corn diet, fed four weeks, liver.
Source text: as §1
Cholesterol inhibitor I was re-chromatographed by HPLC and the UV absorption spectrum obtained. Maximum absorption occurred at 292 nm. This purified fraction was used for high resolution mass spectrometric analysis. Several scans were made using ionization temperatures from 90-180 degrees Centigrade to increase the possibility of detecting impurities. […] The results shown on Table 3 confirm those previously recorded for petroleum ether solubles of HPBF and cholestrol inhibitor I. In a final experiment, the effects of cholestrol inhibitor I and lemon grass oil on hepatocyte HMG Co-A reductase and FAS activities were tested. […]
expressed as mean ± SD; N = 8 chickens per group; HMGCoA reductase = […]

Setting [5] is: 2.5 ppm in corn diet, fed 3 weeks.
Setting [6] is: 5.0 ppm in corn diet, fed 3 weeks.
Where [7] appears, read: 10.0 ppm in corn diet, fed 3 weeks.
[8] abbreviates: 15.0 ppm in corn diet, fed 3 weeks.
Setting [9] is: 20.0 ppm in corn diet, fed 3 weeks.

This note sets out measurements from US4603142A, “Cholesterol lowering method of use” (Wisconsin Alumni Research Foundation, priority 1984, dated 1986).

In the case of `CC(C)=CCC/C(C)=C/CC/C(C)=C/CC[C@]1(C)CCc2c(C)c(O)c(C)c(C)c2O1` [Cholesterol inhibitor I, 2,5,7,8-tetramethyl-2 (4,8, 12-trimethyltrideca-3,7, 11-trienyl)chroman-6-ol], the “Effect on high density lipoprotein cholesterol levels” value in data set [1] is recorded as “no significant effect”. Further, the Side effects result in data set [1] was “no undesirable side effects”. The “Effect on total and low density lipoprotein cholesterol” value in data set [1] (even in low concentrations) was “lower concentrations of total and low density lipoprotein cholesterol”. Also, the “Effect on activities of FAS” value on FAS is recorded as “significant increase”. The “Fatty Acid Synthetase, percentage of control” value is given as 118 Percentage of respective contr in the data set on Fatty Acid Synthetase [2] (setting [5]); 120 Percentage of respective contr with Fatty Acid Synthetase [2] (setting [6]); 125 Percentage of respective contr in the data set on Fatty Acid Synthetase [2] (setting [7]); 130 Percentage of respective contr with Fatty Acid Synthetase [2] (setting [8]); 140 Percentage of respective contr with Fatty Acid Synthetase [2] (setting [9]); 111 Percentage of respective contr in the data set on Fatty Acid Synthetase [4]. The “Fatty Acid Synthetase” value in the data set with Fatty Acid Synthetase [2] (setting [5]) is 190 ± 12 nmoles of NADPH oxidized per m; with Fatty Acid Synthetase [2] (setting [6]), 202 ± 10 nmoles of NADPH oxidized per m; in the data set on Fatty Acid Synthetase [2] (setting [7]), 210 ± 15 nmoles of NADPH oxidized per m; in the data set with Fatty Acid Synthetase [2] (setting [8]), 218 ± 17 nmoles of NADPH oxidized per m; in the data set on Fatty Acid Synthetase [2] (setting [9]), 235 ± 18 nmoles of NADPH oxidized per m; in the data set on Fatty Acid Synthetase [2] (corn diet + 5 ppm (Table 2)) it was 215 ± 18 nmoles of NADPH oxidized per m. Also, the “Fatty Acid Synthetase” value in the data set on Fatty Acid Synthetase [4] (mean ± SD, N = 8) is listed as 292 ± 9 nmoles of NADPH oxidized per m. Also, in data set [3], the “Concentration in Serum LDL-Chol., percentage of control” value was 66 Percentage of respective contr. The “Concentration in Serum HDL-Chol.” value in data set [3] (mean ± SD, N = 8) came to 58 ± 3 mg/100 ml. The “Concentration in Serum LDL-Chol.” value in data set [3] (mean ± SD, N = 8) was 44 ± 3 mg/100 ml. The “Concentration in Serum Total Cholesterol” value in data set [3] (mean ± SD, N = 8) is 103 mg/100 ml.
